Reference: patent US20030055052A1, “FAP-activated anti-tumor compounds” (priority 2000, published 2003)

Biological target: T1, FAP (Homo sapiens, UniProt Q12884)
T1 construct: expressed in transfected cells; host or cells: human embryonic kidney 293 cells stably transfected with pFAP.38; cell extract used
T1 sequence (Q12884 1-760): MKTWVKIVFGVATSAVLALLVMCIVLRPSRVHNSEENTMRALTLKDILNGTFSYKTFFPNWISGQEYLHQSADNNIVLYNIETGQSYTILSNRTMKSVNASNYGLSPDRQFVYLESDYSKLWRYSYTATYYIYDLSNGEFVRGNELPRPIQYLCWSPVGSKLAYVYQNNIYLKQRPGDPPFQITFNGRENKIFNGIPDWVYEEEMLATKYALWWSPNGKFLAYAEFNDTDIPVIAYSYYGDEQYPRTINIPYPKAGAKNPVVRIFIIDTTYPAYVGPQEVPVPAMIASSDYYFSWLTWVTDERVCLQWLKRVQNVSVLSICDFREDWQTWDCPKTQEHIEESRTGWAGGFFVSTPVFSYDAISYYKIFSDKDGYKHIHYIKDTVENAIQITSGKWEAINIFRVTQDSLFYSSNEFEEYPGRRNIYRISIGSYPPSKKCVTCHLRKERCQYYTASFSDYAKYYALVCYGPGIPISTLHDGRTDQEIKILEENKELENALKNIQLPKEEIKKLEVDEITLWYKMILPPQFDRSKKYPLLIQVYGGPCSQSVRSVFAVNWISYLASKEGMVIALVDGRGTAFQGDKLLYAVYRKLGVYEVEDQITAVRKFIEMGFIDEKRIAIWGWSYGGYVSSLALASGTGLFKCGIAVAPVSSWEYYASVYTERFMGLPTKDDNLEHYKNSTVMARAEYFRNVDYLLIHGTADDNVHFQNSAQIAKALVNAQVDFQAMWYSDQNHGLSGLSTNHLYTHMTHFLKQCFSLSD
Assay: Assay for cleavage of AMCA substrates by FAP
Assay type: biochemical
Conditions: 1 ng FAP enzyme (FAP-transfected 293 cell extract), 20 μl 2.5 mM substrate, room temperature, 1 hour; control 293 extract subtracted
Procedure: Assay for Cleavage of AMCA Substrates by FAP:
Cell extract from 293 cells stably transfected with FAP prepared as described (see Park, et al., Fibroblast Activation Protein, a Dual Specificity Serine Protease expressed in human tumor stromal fibroblasts. (1999) J. Biol. Chem. 36505-12.). A similar extract was also prepared from parental 293 control cells without FAP. The FAP concentration in the FAP-transfected cell extract was estimated by immunoassay and 1 ng enzyme (diluted in buffer A) was used per assay. FAP-negative 293 control cell extract was used at the same dilution (also in buffer A) as a negative control. Substrate was initially dissolved in dimethylformamide at a concentration of 200 mM and diluted in buffer A to a final concentration of 2.5 mM. A few substrates were not soluble at this concentration and had to be diluted further.
10 μl 10% DMSO in buffer A
70 ll diluted FAP cell extract containing 1 ng FAP enzyme (OR control 293 cell extract without FAP)
Mix, incubate at room temperature for 1 hour, and measure fluorescence in Fluorostar fluorimeter at the following wavelengths:
AMCA conjugates: Excitation: 390 nm, Emission: 440 nm.
The fluorescence measured in the samples treated with control 293 control cell extracts without FAP is subtracted from the values measured in the samples treated with 1 ng FAP enzyme.

| Substance | Cleavage | Turnover |
| --- | --- | --- |
| Z-Thz-Ala-Gly-Pro-AMCA-OH | 1.11 µM | 0.22% |
| Z-Imi-Ala-Gly-Pro-AMCA | 0.61 µM | 0.12% |
